Here are results for two molecules from publication PMC9629855, “Development of ASIC1a ligand-gated ion channel drug screening assays across multiple automated patch clamp platforms” (Frontiers in Molecular Neuroscience, 2022).

For orientation: inhibition means the relative decrease from the control value, in per cent.

The target of assay [1] is T1, hASIC1a (Homo sapiens, UniProt P78348).
T1 sequence (P78348 1-528): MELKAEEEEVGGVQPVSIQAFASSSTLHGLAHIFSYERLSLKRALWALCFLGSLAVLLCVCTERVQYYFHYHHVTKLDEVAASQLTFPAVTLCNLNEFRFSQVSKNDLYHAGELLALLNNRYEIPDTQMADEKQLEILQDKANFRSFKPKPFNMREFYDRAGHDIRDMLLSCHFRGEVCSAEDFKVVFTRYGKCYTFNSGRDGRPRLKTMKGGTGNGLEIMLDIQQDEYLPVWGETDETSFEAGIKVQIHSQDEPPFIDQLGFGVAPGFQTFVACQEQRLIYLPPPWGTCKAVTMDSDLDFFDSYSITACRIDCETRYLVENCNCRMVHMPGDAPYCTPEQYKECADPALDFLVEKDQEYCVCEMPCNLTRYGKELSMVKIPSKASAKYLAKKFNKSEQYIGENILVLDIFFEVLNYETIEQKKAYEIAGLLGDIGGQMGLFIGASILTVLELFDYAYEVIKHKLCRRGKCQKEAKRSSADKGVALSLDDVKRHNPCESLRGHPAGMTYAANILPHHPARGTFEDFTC
Description: Patchliner APC, CHO ASIC1a currents, stacked tip application, voltage clamp. Further details: host or cells: CHO. To be noted: cumulative application, pH 6.5, stacked tip, single hole. It is filed as cell-based. As to the method: CHO cells were cultured according to vendor instructions (B-SYS GmbH) and harvested using optimized protocols before transfer of the cell suspension to the automated cell hotel on the Patchliner where cells are stored at RT (∼20°C) in a small Teflon vessel and repetitively aspirated every 30 s using a 1 ml plastic pipette tip to prevent aggregation. The cell hotel parameters can be adjusted (interval, speed and volume of aspiration) depending on the cell type to maintain viability for 2–3 h. Cell sealing was conducted in the presence of elevated divalent cations and lowered Na^+, which were washed off after whole-cell access was achieved and replaced with external solution while cells were voltage clamped at a holding potential of −60 mV. […]
Concentration-response xC50 curves from Patchliner and QPatch 48 experiments were calculated by plotting %inhibition (antagonists) or activation (pH) data against concentration in Prism software (GraphPad), using the variable sigmoidal dose-response function to fit the Hill equation with theoretical minimum block of 0% and maximum block of 100% and a free constant for Hill slope. […]
(In general: In patch-clamp work, channel activity is measured electrically.)

Assay [2] has as its target T1, hASIC1a. Also noted: host or cells: CHO. To be noted: ref Leng et al., 2016; read-out: Literature IC50; cited from earlier work.
Assay [3] relates to endogenous proton-activated currents in HEK cells. Description: cells. To be noted: for IC50: pH 6.5 activation, QPatch 48, read-out: mean IC50. It is filed as cell-based, human. As to the method: CHO hASIC1a cells were cultured according to vendor instructions (B-SYS GmbH) and HEK cells using standard in-house methods. Both cell lines were harvested using optimized protocols and re-suspended in serum-free media (Gibco CHO-S-SFM from Thermo Fisher Scientific for CHO cells, and Ex-Cell 302 from Merck Sigma-Aldrich for HEK cells) to obtain a suspension of cells with smooth membranes and little debris, before transfer to the automated cell hotel consisting of a 60 ml plastic container (Sophion SB2050) and a magnetic stir bar to prevent cell clumping. An aliquot of cells is then aspirated into a 1 ml microcentrifuge tube and spun down (typically 150 g for 2.5 min) and the supernatant discarded before a user-defined volume of external solution is added by the robot and the cells re-suspended to achieve the desired final cell suspension density before application to primed QPlates. Cell capture, sealing and whole-cell access was achieved using optimized QPatch protocols before currents were recorded using a holding potential of −60 mV. […] Cells were washed three times with external pH 7.3 solution (5 μl) between applications of activating acidic solution to establish a stable ASIC1a current baseline. […] Each concentration of reference compound was applied to each cell before (i.e., during each pH 7.3 application period) and during each pH stimulus (IC50 mode). Thus, each concentration of test compound was pre-incubated with cells for at least 2 min before, and then during each acidic solution challenge, before wash-off in a neutral pH 7.3 solution that contained the next concentration of the same compound. Cells were allowed at least 2 min between applications of acidic solution to enable ASIC1a receptors to recover from desensitization.
Concentration-response xC50 curves from Patchliner and QPatch 48 experiments were calculated by plotting %inhibition (antagonists) or activation (pH) data against concentration in Prism software (GraphPad), using the variable sigmoidal dose-response function to fit the Hill equation with theoretical minimum block of 0% and maximum block of 100% and a free constant for Hill slope. Inward current amplitudes were compared to the response to a control pH application (typically pH 6.5) prior to antagonist application or excitation by solutions of different pH to enable calculation of %inhibition or %activation for each cell.
To quickly confirm a previous publication that HEK cells express endogenous ASIC1a receptor channels and assess the suitability of this cell system for drug discovery screening on APC platforms, we utilized the medium throughput QPatch 48 device. The QPatch uses 48 well microfluidic planar borosilicate chips and coated titanium pipette tips to make whole-cell recordings and sequentially apply small liquid volumes to enable rapid activation followed by slower deactivation (wash-off) of ligand-gated ionotropic responses. HEK cells were voltage-clamped at −60 mV and maintained in external solution at pH 7.4 to avoid steady-state desensitization of ASIC1 receptor channels. Cells were stimulated by external solutions with pH values ranging between 7.0 and 5.5 that evoked rapidly activating inward currents, followed by wash-off in pH 7.4 solution.

In assay [4] the test system is endogenous pH-gated responses in HEK cells. Also noted: method as in Gunthorpe et al. (2001). To be noted: manual patch clamp, ref Gunthorpe et al. (2001), read-out: affinity for inhibition of endogenous pH-gated responses; cited from earlier work.
The test system of assay [5] is ENaC channels. Also noted: method as in Canessa et al., 1994. To be noted: ref Canessa et al., 1994; cited from earlier work.

Several values for one entry are separate records, joined by “and”; a condition that tells them apart may be missing. Equal values may be shown once. Read-outs that look alike come from different tables or passages of the source.

Regarding `NC(=NCc1ccccc1)NC(=O)c1nc(Cl)c(N)nc1N` [Benzamil], the IC50 in assay [1] was 3650 nM; in assay [2], 3500 nM.
On to `N=C(N)NC(=O)c1nc(Cl)c(N)nc1N` [Amiloride], for which the IC50 in assay [3] (HEK cells) is 2000 to 3000 nM and 2800 nM; in assay [3] (Homo sapiens, HEK293, pH 6.5, HEK cells), 2820 nM; in assay [4] it was 2200 nM. In addition, in assay [3] (Homo sapiens, HEK293, read-out: inhibition of pH-evoked current (some cells)), the inhibition at 0.3 µM is ~25%. The “sensitivity of ENaC channels to inhibition” value in assay [5] is given as 100 nM.
